Here are results for 3 compounds from US20080009545A1, “Anticancer agents” (The Ohio State University Research Foundation, priority 2006, published 2008).

In one assay the test system is LNCaP cells. In words: MTT cell viability, LNCaP cells. Format: cell-based, human. The following applies: even at 100 μM, 24 h. Here is the method: (§1) Cell culture—LNCaP androgen-dependent (p53+/+) and PC-3 androgen-nonresponsive (P53−/−) prostate cancer cells were obtained from the American Type Culture Collection (Manassas, Va.). The preparation of the stable Bcl-xL-overexpressing LNCaP clone B3 (LNCaP/B3) was previously described (18). PC-3, LNCaP, and LNCaP/B3 cells were maintained in RPMI 1640 supplemented with 10% fetal bovine serum (FBS) at 37° C. in a humidified incubator containing 5% carbon dioxide. Normal human prostate epithelial (PrEC) cells were purchased from Cambrex Bio Science Walkersville, Inc. (East Tutherford, N.J.). Cells were maintained in Prostate Epithelial Cell Medium with growth supplements at 37° C. in a humidified incubator containing 5% carbon dioxide. The recommended seeding density for subculture is 2,500 cells/cm^2. It takes 6-9 days from subculture to attain confluency.
(§2) Cell viability analysis—The effect of individual test agents on cell viability was assessed by using the MTT assay in 6 to 12 replicates. PC3, LNCaP, and B3-LNCaP cells were seeded and incubated in poly-p-lysine-coated, 96-well, flat-bottomed plates in RPMI 1640 medium supplemented with 10% FBS medium for 24 hours. PrEC cells were seeded at the recommend density in 96-well, flat-bottomed plates in Prostate Epithelial Cell Medium with growth supplements for 3 days. […] Absorbance at 570 nm was determined on a plate reader.
(§3) Determination of IC50 values—Data from cell viability and fluorescence polarization assays were analyzed by using the CalcuSyn software (Biosoft, Ferguson, Mo.) to determine IC50 values, in which the calculation was based on the medium-effect equation [i.e., log(fa/fu)=m log(D)−m log(Dm), where fa and fu denote fraction affected and unaffected, respectively; m represents the Hill-type coefficient signifying the sigmoidicity of the dose-effect curve; and D and Dm are the dose used and IC50, respectively.

Another assay concerns PC-3 cells. As to the kind of experiment: MTT cell viability, PC-3 cells. Format: cell-based, human. The following applies: even at 100 μM, 24 h. As for the experimental part: as §1, §2, §3
In a further assay the target is Bcl-xL (Homo sapiens, UniProt Q07817). In words: Competitive fluorescence polarization assay, Bak BH3 peptide binding to Bcl-xL. The following applies: for activity in inhibiting Bak peptide-Bcl-xL binding: even at 100 μM. Here is the method: Competitive fluorescence polarization assay—The binding affinity of the test agent to Bcl-XL was analyzed by a competitive fluorescence polarization assay in which the ability of the agent to displace the binding of a Bak BH3-domain peptide to either Bcl-2 or Bcl-XL was determined. Flu-BakBH3, a Bak-BH3 peptide labeled at the NH2 terminus with fluorescein, was purchased from Genemed Synthesis (San Francisco, Calif.). COOH-terminal-truncated, His-tagged Bcl-XL was purchased from EMD Biosciences (San Diego, Calif.) and soluble glutathione S-transferase-fused Bcl-2 was obtained from Santa Cruz Biotechnology. The binding analysis was carried out in a dual-path length quartz cell with readings taken at […] at room temperature using a luminescence spectrometer according to an established procedure (19).
Chain of Bcl-xL (Q07817 1-212 limits assumed): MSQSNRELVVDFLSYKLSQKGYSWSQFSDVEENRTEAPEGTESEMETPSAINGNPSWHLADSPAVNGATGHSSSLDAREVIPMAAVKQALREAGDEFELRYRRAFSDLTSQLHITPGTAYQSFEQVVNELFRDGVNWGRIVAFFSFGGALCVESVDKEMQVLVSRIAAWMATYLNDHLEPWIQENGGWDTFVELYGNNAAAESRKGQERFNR
as §3

For the next assay, the system named is PrEC cells. In words: MTT cell viability, normal prostate epithelial cells (PrECs). It is filed as cell-based, human. The note with it: 24 h, Prostate Epithelial Cell Basal Medium with growth supplements. As for the experimental part:
as §1
Cell viability analysis—The effect of individual test agents on cell viability was assessed by using the MTT assay in 6 to 12 replicates. PC3, LNCaP, and B3-LNCaP cells were seeded and incubated in poly-p-lysine-coated, 96-well, flat-bottomed plates in RPMI 1640 medium supplemented with 10% FBS medium for 24 hours. PrEC cells were seeded at the recommend density in 96-well, flat-bottomed plates in Prostate Epithelial Cell Medium with growth supplements for 3 days. All cells were exposed to various concentrations of test agents dissolved in ethanol (for α-tocopherol, α-tocopheryl succinate, and TS-3) or DMSO (all other test agents used) with a final concentration of 0.1% in serum-free RPMI 1640 medium for PC3, LNCaP, and LNCaP/B3 cells or in Prostate Epithelial Cell Basal Medium with growth supplements for PrEC cells. Controls received DMSO or ethanol vehicle at a concentration equal to that in drug-treated cells. The medium was removed, replaced by 200 μL of 0.5 mM MTT in 10% FBS-containing RPMI 1640 medium, and cells were incubated in the CO2 incubator at 37° C. for 2 h. […] Absorbance at 570 nm was determined on a plate reader.

In the case of `Cc1c(C)c2c(c(C)c1OC(=O)CCC(=O)O)CCC(C)(C)O2` [TS-3, succinic acid mono-(2,2,5,7,8-pentamethyl-chroman-6-yl)ester], the “activity in suppressing cell viability” value in the assay with LNCaP cells and with PC-3 cells was “lacked appreciable activity” in each case. In addition, the “Bcl-xL binding affinity (effect of structural change)” value at Bcl-xL is listed as “abrogated the binding affinity”. Further, at Bcl-xL, the “activity in inhibiting Bak peptide-Bcl-xL binding” value is “lacked appreciable activity”.
On to `Cc1c(C)c2c(c(C)c1O)CCC(C)(CCCC(C)CCCC(C)C)O2` (centres unmarked) [TS-4, 2-(4,8-dimethyl-nonyl)-2,5,7,8-tetramethyl-chroman-6-ol], for which the “activity in suppressing cell viability” value with LNCaP cells and with PC-3 cells was “lacked appreciable activity” in each case. Also, on Bcl-xL, the “activity in inhibiting Bak peptide-Bcl-xL binding” value was “lacked appreciable activity”.
As for `Cc1c(C)c2c(c(C)c1OCCC(=O)O)CCC(C)(CCCC(C)CCCC(C)C)O2` (centres unmarked) [TS-5, 3-[2,5,7,8-tetramethyl-2-(4,8-dimethyl-nonyl)-chroman-6-yloxy]propionic acid], the “antiproliferative effect on normal prostate epithelial cells” value with PrEC cells is on record as “resistant”.
